# Columns and labels:
# full-length Nav1.5 = test: Lysine acetylation of full-length Nav1.5 expressed in HEK 293 cells (acetyl-lysine IP / immunoblot); assay type: cell-based; details: HEK 293 cells expressing the full-length channel
# From the text: FIGS. 8A and 8B show a series of Western blot images illustrating that wild-type SIRT1 deacetylates full-length Nav1.5. (8A) GFP-tagged full-length Nav1.5 was expressed in HEK 293 cells, with and without myc-tagged wild-type SIRT1, and immunoprecipitated (IP). IPs were immunoblotted (IB) with GFP and myc. (8B) Nav1.5 was expressed in HEK 293 cells. Cells were co-transfected with SIRT or treated with resveratrol or NAM. Acetyl-lysine IPs were immunoblotted for Nav1.5
# (§1) How SIRT1 acts to increase Nav1.5 membrane localization and INa was addressed. Because SIRT1 is a lysine deacetylase, it was hypothesized that it changes the acetylation status of lysine residues in Nav1.5. To test this hypothesis, whether the two proteins bind to each other was tested. […] In addition, endogenous SIRT1 co-precipitated with endogenous Nav1.5 in NRCMs and in mouse hearts (FIG. 7B). Next, if Nav1.5 is acetylated on lysine residues was determined. In HEK 293 cells expressing the full-length channel, Nav1.5 was robustly acetylated on lysine residues, and overexpression or stimulation (with resveratrol) of SIRT1 decreased, while inhibition of SIRT1 with NAM increased, this acetylation (FIG. 8).
# Nav1.5 (III-IV) = test: Lysine acetylation of GST-tagged Nav1.5 (III-IV) expressed in HEK 293 cells; assay type: cell-based; details: GST-tagged loop III-IV construct in HEK 293 cells
# From the text: GST-tagged Nav1.5 (III-IV) was expressed in HEK 293 cells. Cells were co-transfected with wild-type SIRT1 or treated with NAM or resveratrol. Nav1.5 (III-IV) was pulled down with GST-agarose, and immunoblotted (IB) with GST and acety-lysine antibodies.
# Because Nav1.5 has 84 lysine residues, the number of putative lysine targets of SIRT1 was narrowed down by excluding the extra-cellular and membrane-spanning domains. Attention was initially focused on one intracellular region (termed loop III-IV) which is rich in lysine residues (12 lysines), based on by prior reports showing that lysines in this region are important for channel function (Grant et al., J. Clinic. Invest. 110, 1201-1209, 2002). Using a GST-tagged construct encoding the 61 amino acids in loop III-IV expressed in HEK 293 cells, if lysine acetylation of this region of Nav1.5 is regulated by SIRT1 was examined.
# GST-Nav1.5 (III-IV) = test: Ubiquitination of GST-Nav1.5 (III-IV) in HEK 293 cells; assay type: cell-based
# native Nav1.5 (INa) = test: Whole cell patch clamp of INa in rat neonatal cardiac myocytes; assay type: cell-based; details: 5 μM
# native Nav1.5 = test: Lysine acetylation of native Nav1.5 in rat neonatal cardiomyocytes (Western blot); assay type: cell-based
# Procedure: FIGS. 9A-9C are a graph and a set of Western blots showing that inhibition of endogenous SIRT1 increases lysine acetylation of native Nav1.5 in rat neonatal cardiomyocytes.
# as §1
# [1] = system: GFP-tagged full-length Nav1.5; test: Ubiquitination of GFP-tagged full-length Nav1.5 in HEK 293 cells; assay type: cell-based; details: resveratrol 100 μM, 4 hrs
# Procedure: FIGS. 13A and 13B are a set of Western blots showing that SIRT1 de-ubiquitinates Nav1.5. (A) HEK 293 cells were transfected with full-length GFP-tagged Nav1.5 and HA-ubiquitin. Cells were treated with resveratrol (100 μM, 4 hrs). Nav1.5 was immunoprecipitated (IP) with GFP and immunoblotted with GFP and HA. (B) HEK 293 cells were transfected with GST-tagged Nav1.5 (III-IV) and HA-ubiquitin. Cells were treated with NAM or co-transfected with SIRT1. Nav1.5 (III-IV) was pulled down with GST-agarose and immunoblotted (IB) with HA.
# Poly-ubiquitination of Nav1.5 inhibits its membrane localization (Van Bemmelen et al., Circ. Res. 95, 284-291, 2004). SIRT1 regulates ubiquitination of some of its targets, in some cases decreasing ubiquitination (Van Bemmelen et al., Circ. Res. 95, 284-291, 2004). Because SIRT1 increases membrane expression of Nav1.5, whether SIRT1 decreases ubiquitination of the channel was tested. First, the effect of the SIRT1 activator resveratrol on ubiquitination of Nav1.5 was determined. In HEK 293 cells GFP-tagged full-length Nav1.5 was robustly poly-ubiquitinated (FIG. 13A). […] Using GST-Nav1.5 (III-IV) the effect of SIRT1 on ubiquitination of this intracellular region of Nav1.5 was also examined. Similar to full-length Nav1.5, GST-Nav1.5 (III-IV) was also poly-ubiquitinated (FIG. 13B). […]
# QRS amplitude on ECGs = assay type: in vivo; details: suggestive of increased sodium currents
# From the text: It is disclosed herein that SIRT1 can deacetylate Nav1.5, that Nav1.5 and SIRT1 co-immunoprecipitate, that over-expression of SIRT1 increases INa currents and that dominant negative suppression of SIRT1 or use of SIRT1 inhibitors decreases INa currents, that SIRT1 increases membrane expression of Nav1.5 and dominant negative SIRT1 decreases membrane expression of Nav1.5, that SIRT1 targets lysine 1479 in Nav1.5, that SIRT1 increases INa and dominant negative SIRT1 decreases INa by targeting lysine 1479 in Nav1.5, and that SIRT1 increases membrane expression of Nav1.5 by targeting lysine 1479 in Nav1.5. In addition there is prolongation of the PR interval, intermittent high-grade atrioventricular block on ECGs and telemetry of cardiomyocyte-specific SIRT1 knockout mice compared to wild type control mice, and decreased conduction velocity of the electrical impulse in hearts of cardiomyocyte-specific SIRT1 knockout mice compared to wild type control mice.
Structure (SMILES),lysine acetylation of full-length Nav1.5 (full-length Nav1.5),acetylation of Nav1.5 (III-IV) (Nav1.5 (III-IV)),poly-ubiquitination of GST-Nav1.5 (III-IV) (GST-Nav1.5 (III-IV)),effect on INa (native Nav1.5 (INa); compared to inactive isomer Ex-242),"effect on INa (native Nav1.5 (INa); compared to inactive isomer Ex-242, listed as ex-243)",lysine acetylation of native Nav1.5 (native Nav1.5),poly-ubiquitination of full-length Nav1.5 [1],QRS amplitude on ECGs (QRS amplitude on ECGs)
"NC(=O)c1cccnc1 [NAM, nicotinamide]",increased,increased,increased,,,,,
NC(=O)[C@H]1CCCc2c1[nH]c1ccc(Cl)cc21 [Ex-243],,,,significantly decreased,decreases,increases,,
Oc1ccc(C=Cc2cc(O)cc(O)c2)cc1 [resveratrol],decreased,decreased,,,,,significantly decreased,increased
